Read-outs that look alike come from different tables or passages of the source.
How the values were obtained:
DNA polymerase = assay: ddNTP versus dNTP incorporation (discrimination) in primer extension / sequencing reaction with metal ions; assay type: biochemical; conditions: for effect of cation on DNA synthesis / sequencing reaction: monovalent and divalent cations tested
Procedure: In order to determine whether any particular DNA polymerase, in combination with any particular chain terminating agent, or other component of a sequencing reaction mixture, is useful in this invention, a standard sequencing reaction is performed, as described below and shown in the drawings, and the extent of band formation, and the uniformity of nearby bands in a sequencing gel, reviewed. […] Adjacent band uniformity within a two-fold or less range is useful in this invention, preferably the uniformity is within a 1.0-1.5 fold range. Similarly, determination of optimum cation concentration, or of other potential cations useful in the invention, is determined by use of this sequencing reaction under various conditions. For example, cations are tested in ranges from 0.005-100 mM. An example of such an experiment follows:
DNA synthesis is measured using a 17-mer primer of sequence 5'-[…]-3' (New England Biolabs catalog number 1211) that has been labeled with ^32 P at its 5' end and annealed to single-stranded mGPl-2 DNA. Tabor et al., proc. Nat. Acad. Sci. USA 84:4767 (1987) and Tabor et al., J. Biol. Chem. 262:16212 (1987). Any other template is equally useful in this reaction. This primer-template is used in a reaction that contains a DNA polymerase in the presence of a range of concentrations of a metal ion. Reactions are carried out in the presence of a given concentration of all 4 deoxynucleotides (dNTPS, 20-200 μM), and over a range of concentrations of one dideoxynucleotide (ddNTP, in this example, ddGTP from 10-500 μM). The DNA products are then analyzed by polyacrylamide gel electrophoresis, where DNA synthesis is detected as extensions of the primer producing bands, representing extensions of various molecular weights, in the gel.
In a specific example, each reaction mixture (10μl) contained 0.1 μg^32 P-primer-template, 40 mM Tris-HCl pH 7.5, 5 mM dithiothreitol (DTT) 5μM to 20mM metal ion, 10 to 500 μM 4dNTPs, 1 to 500 μM ddNTPs, and 2 units of a DNA polymerase. Incubation was at 37° C. for 15 min. The reaction was stopped by addition of 10μl of 90% formamide, 50 mM EDTA, and 0.1% bromophenol blue.
Electrophoresis was at 2000 volts for 2 hours. The gel was fixed in 50% methanol, 10% acetic acid for 30 min., dried, and exposed, for autoradiography. Band intensity in each lane of the resulting film was determined by scanning each lane with a densitometer. The densitometer used was a double-beam recording instrument, model MkIIIC (Joyce, Loebl & Co., Ltd., Gateshead-on-tyne, II, England). Any suitable densitometer instrument for scanning gels will also work. Alternatively, the uniformity of the resulting bands can be determined by scanning the DNA products as they are electrophoresed within the gel.
The ability to incorporate a given ddNTP compared to the corresponding dNTP for any one enzyme is measured as the ratio of ddNTP to dNTP necessary to allow DNA synthesis that terminates in a fixed range, detected as producing bands of no greater than a fixed molecular weight. That is, the bands produced in the reaction end within a specified range in the sequencing gel. Thus, if one enzyme discriminates 1000-fold greater against a given ddNTP compared to another enzyme, a 1000-fold higher ratio of ddNTP to dNTP will be necessary to obtain bands terminating at the corresponding sites in the same range of the gel.

[1] = biological target: genetically modified T7 DNA polymerase (ΔLys118-Arg145) (Escherichia phage T7, UniProt P00581, DEL118-145)
[2] = biological target: T1, genetically modified T7 DNA polymerase (Escherichia phage T7, UniProt P00581, DEL118-145); assay type: biochemical
T1 construct: made in house; host or cells: E. coli strain K38/pTrx-3/pGP5-8
T1 sequence (P00581 other isoform, or with tags, fused parts or gaps DEL118-145): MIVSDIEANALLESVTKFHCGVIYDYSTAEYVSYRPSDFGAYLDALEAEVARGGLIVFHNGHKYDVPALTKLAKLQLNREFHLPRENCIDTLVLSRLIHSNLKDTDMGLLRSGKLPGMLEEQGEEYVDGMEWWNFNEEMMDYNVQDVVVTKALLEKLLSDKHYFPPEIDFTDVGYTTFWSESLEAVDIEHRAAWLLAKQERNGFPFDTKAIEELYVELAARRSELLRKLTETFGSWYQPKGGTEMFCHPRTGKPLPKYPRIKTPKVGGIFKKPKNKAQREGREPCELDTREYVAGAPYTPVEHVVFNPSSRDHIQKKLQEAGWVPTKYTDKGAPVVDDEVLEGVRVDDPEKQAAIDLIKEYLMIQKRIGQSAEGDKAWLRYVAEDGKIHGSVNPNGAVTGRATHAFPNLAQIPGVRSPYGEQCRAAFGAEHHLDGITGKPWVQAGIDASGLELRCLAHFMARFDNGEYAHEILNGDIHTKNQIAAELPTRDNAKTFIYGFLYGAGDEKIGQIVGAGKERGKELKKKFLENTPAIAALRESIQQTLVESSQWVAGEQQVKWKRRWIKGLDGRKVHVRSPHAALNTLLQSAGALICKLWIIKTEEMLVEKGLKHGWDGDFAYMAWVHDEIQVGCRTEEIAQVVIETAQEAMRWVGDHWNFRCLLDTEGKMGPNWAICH
T1 sequence (P0AA25 2-109, stated change not applied, further chain): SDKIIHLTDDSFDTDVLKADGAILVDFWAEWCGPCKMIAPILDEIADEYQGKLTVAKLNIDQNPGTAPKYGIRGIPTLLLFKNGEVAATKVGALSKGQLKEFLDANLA

genetically modified T7 DNA polymerase (ΔLys118-Arg145), sequence (P00581 with tags, fused parts or gaps DEL118-145): as the sequence (P00581 other isoform, or with tags, fused parts or gaps DEL118-145) above

Molecule: [Ce] [Ce]
- effect of cation on DNA synthesis / sequencing reaction (DNA polymerase): no detectable effect, or are detrimental to DNA synthesis

Molecule: [Mg+2] [magnesium]
- optimum ion concentration in a sequencing reaction (polymerase activity) ([1]; absence of a chelator, FIG. 8): 20 mM
- intensity of underlined bases in triplets versus adjacent bases ([2]; Example 1 sample run with magnesium in place of manganese): 2-5 fold
- variation of nearby band intensity ([2]; all four ddNTPs at equal concentration, magnesium, FIG. 6): varies greatly
- variation of nearby band intensity (peak height) ([2]; ddGTP only, magnesium instead of manganese, FIG. 3): ≤ 10 fold

Molecule: [Ni] [Ni]
- effect of cation on DNA synthesis / sequencing reaction (DNA polymerase): no detectable effect, or are detrimental to DNA synthesis

Molecule: O=c1[nH]cnc2c1ncn2[C@H]1CC[C@@H](COP(=O)(O)OP(=O)(O)OP(=O)(O)O)O1 [ddITP, dideoxy ITP, reference compound]
- discrimination against ddITP compared to ddGTP (DNA polymerase; in the presence of Mn): 10 fold

Molecule: [Si] [Si]
- effect of cation on DNA synthesis / sequencing reaction (DNA polymerase): no detectable effect, or are detrimental to DNA synthesis

Molecule: [Co] [Co]
- effect of cation on DNA synthesis / sequencing reaction (DNA polymerase): no detectable effect, or are detrimental to DNA synthesis

Molecule: [Cr] [Cr]
- effect of cation on DNA synthesis / sequencing reaction (DNA polymerase): no detectable effect, or are detrimental to DNA synthesis

Molecule: Taq polymerase: DNA polymerase used for sequencing
- lessening of the requirement for chain terminating agents (dideoxynucleosides) (DNA polymerase; in the presence of manganese or iron ions): ~1000 fold

Molecule: [Ba] [Ba]
- effect of cation on DNA synthesis / sequencing reaction (DNA polymerase): no detectable effect, or are detrimental to DNA synthesis

Molecule: [Cu] [Cu]
- effect of cation on DNA synthesis / sequencing reaction (DNA polymerase): no detectable effect, or are detrimental to DNA synthesis

Molecule: [Mn+2] [manganese]
- optimum ion concentration in a sequencing reaction (polymerase activity) [1]: 1 mM
- optimum manganese concentration [1]: 5 to 20 mM
- difference in band intensity between bases in the triplets TCT, AAG, GCA, CCT ([2]; Example 1, manganese in sequencing buffer, densitometer): at most 20%
- variation of nearby bands and peaks ([2]; all four ddNTPs at 0.75 μM each, manganese, FIG. 5): no more than 1.5 fold

Molecule: [Na] [Na]
- effect of cation on DNA synthesis / sequencing reaction (DNA polymerase): no detectable effect, or are detrimental to DNA synthesis

Molecule: [Be] [Be]
- effect of cation on DNA synthesis / sequencing reaction (DNA polymerase): no detectable effect, or are detrimental to DNA synthesis

Molecule: [Zn] [Zn]
- effect of cation on DNA synthesis / sequencing reaction (DNA polymerase): no detectable effect, or are detrimental to DNA synthesis

Molecule: [Ca] [Ca]
- effect of cation on DNA synthesis / sequencing reaction (DNA polymerase): no detectable effect, or are detrimental to DNA synthesis

Molecule: O=C([O-])CC(C(=O)[O-])C(O)C(=O)[O-].[Na+].[Na+].[Na+] (stereo not drawn) [isocitrate, sodium isocitrate]
- optimal isocitrate concentration [1]: 40 mM
- effect of isocitrate on polymerase activity ([1]; 10 mM magnesium, any amount of isocitrate, FIG. 9): inhibitory effect on polymerase
- stimulation of polymerase activity ([1]; t7 dna polymerase, 0.5 h, 40000 µM, pH 7.5): 4 fold

From patent US4962020A, “DNA sequencing” (President and Fellows of Harvard College, priority 1988, dated 1990)
